Source: PubChem BioAssay (NCI)
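The compound was tested at five concentrations on cells cultured in 96-well plates, with a 48-hour exposure period. The concentration for 50% growth inhibition is given as GI50. The concentration for full growth arrest is given as TGI.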

Legend:
Experiment in all cases: inhibition of tumour cell growth, NCI panel, 48 h
MDA-MB-435 = test system: MDA-MB-435
OVCAR-5 ovarian = test system: OVCAR-5 ovarian
TK-10 renal = test system: TK-10 renal
HCT-116 colon = test system: HCT-116 colon
HCT-15 colon = test system: HCT-15 colon
K-562 leukemia = test system: K-562 leukemia
PC-3 prostate = test system: PC-3 prostate
SK-OV-3 ovarian = test system: SK-OV-3 ovarian
NCI-H23 lung = test system: NCI-H23 lung
SNB-19 CNS = test system: SNB-19 CNS

| Compound | GI50 (MDA-MB-435) [nM] | TGI (MDA-MB-435) [µM] | GI50 (OVCAR-5 ovarian) [nM] | TGI (OVCAR-5 ovarian) [µM] | GI50 (TK-10 renal) [nM] | TGI (TK-10 renal) [µM] | TGI (HCT-116 colon) [µM] | TGI (HCT-15 colon) [µM] | TGI (K-562 leukemia) [µM] | TGI (PC-3 prostate) [µM] | TGI (SK-OV-3 ovarian) [µM] | TGI (NCI-H23 lung) [µM] | TGI (SNB-19 CNS) [µM] | GI50 (HCT-116 colon) [nM] | GI50 (HCT-15 colon) [nM] | GI50 (K-562 leukemia) [nM] | GI50 (NCI-H23 lung) [nM] | GI50 (PC-3 prostate) [nM] | GI50 (SK-OV-3 ovarian) [nM] | GI50 (SNB-19 CNS) [nM] |
| --- | --- | --- | --- | --- | --- | --- | --- | --- | --- | --- | --- | --- | --- | --- | --- | --- | --- | --- | --- | --- |
| NCCCCCCNc1cc(-c2cccc(OC(F)(F)F)c2)nc2ccc(N3CCCC3)cc12 | 1640 | 3.01 | 1830 | 3.28 | 1880 | 3.36 | – | – | – | – | – | – | – | – | – | – | – | – | – | – |
| CCCCCCCCCC[C@@H](O)[C@@H]1CC[C@@H]([C@@H]2CC[C@@H]([C@@H](O)CCCCCCCCCCC(O)CC3=CC(C)OC3=O)O2)O1 (stereo partly drawn) | – | – | – | > 10 | – | > 10 | > 10 | > 10 | > 10 | > 10 | > 10 | – | – | – | – | – | – | – | – | – |
| O=C(O)C(Cc1cccs1)C(=O)O | – | > 100 | – | > 100 | – | > 100 | > 100 | > 100 | > 100 | > 100 | > 100 | > 100 | > 100 | – | – | – | – | – | – | – |
| COc1ccc(-c2cn3ccnc3c(-c3ccc4ncn(C5CCCCC5)c4c3)n2)cc1 | 312 | > 100 | – | – | 2990 | 68.9 | 4.06 | > 100 | > 100 | > 100 | 7.64 | > 100 | > 100 | 399 | 722 | 422 | 2110 | 621 | 508 | 836 |
| CC(NCCS(=O)(=O)O)C(=O)O (stereo not drawn) | – | – | – | > 100 | – | – | > 100 | > 100 | > 100 | – | > 100 | > 100 | > 100 | – | – | – | – | – | – | – |
